The text below walks through data of ChEMBL document CHEMBL1129765, “Azonia derivatives of the -carboline system. A new class of DNA intercalators” (Bioorg Med Chem Lett, 1996).

In the assay the test system is HT-29. Description: Compound was tested in vitro to inhibit 50% colon carcinoma HT-29 cell growth after 72 h. In kind it is functional, cell-based. As to conditions: Homo sapiens, HT-29, 72 h.

For the molecule `COc1cccc2c1C(=O)c1c(O)c3c(c(O)c1C2=O)C[C@@](O)(C(=O)CO)C[C@@H]3O[C@H]1C[C@H](N)[C@H](O)[C@H](C)O1` [DOXORUBICIN], the EC50 worked out at 2.5 µM. In other words, the single-digit micromolar range.
